Test results: US20220162191A1, “SMALL MOLECULE MODULATORS OF IL-17” (LEO PHARMA A/S, priority 2019, published 2022)

Target: T1, human IL-17AA (Homo sapiens, UniProt Q16552)
T1 construct: host or cells: HEK (human embryonic kidney) cells
T1 sequence (Q16552 24-155) 1: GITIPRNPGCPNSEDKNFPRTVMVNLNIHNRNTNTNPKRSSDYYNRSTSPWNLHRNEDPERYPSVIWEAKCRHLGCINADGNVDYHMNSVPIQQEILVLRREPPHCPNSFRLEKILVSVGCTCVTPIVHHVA
T1 sequence (Q16552 24-155) 2: T1 sequence (Q16552 24-155) 1
Experiment: IL-8 release assay in human epithelial keratinocytes adult (HEKa)
Type: cell-based
Conditions: 3 ng/ml human IL-17AA + 10 ng/ml human TNFalpha, 68-72 h, IL-8 by HTRF, read-out: Rel EC50 L-8 release assay
How it was run: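 Adult human keratinocytes in Epilife with HKGS minus hydrocortisone, treated with compound then stimulated with final 3 ng/ml HEK-derived human IL-17AA plus 10 ng/ml TNF-alpha for 68–72 h at 37 °C; TNF-alpha alone defines 100% inhibition. Secreted IL-8 by HTRF; relative IC50 and Emax from four-parameter fits.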

Cc1ncn(C)c1-c1ccc(NC(=O)[C@H](Cc2cc(-c3ccnc(N4CCOCC4)c3)ccc2Cl)NC(=O)C2(F)CC2)cc1 [Example 224, N-[(1S)-1-[[2-chloro-5-(2-morpholino-4-pyridyl)phenyl]methyl]-2-[4-(3,5-dimethylimidazol-4-yl)anilino]-2-oxo-ethyl]-1-fluoro-cyclopropanecarboxamide] and Cc1n[nH]c(C)c1-c1ccc(NC(=O)[C@H](Cc2cc(-c3ccnc(N4CCOCC4)c3)ccc2Cl)NC(=O)C2(F)CC2)cc1 [Example 225, N-[(1S)-1-[[2-chloro-5-(2-morpholino-4-pyridyl)phenyl]methyl]-2-[4-(3,5-dimethyl-1H-pyrazol-4-yl)anilino]-2-oxo-ethyl]-1-fluoro-cyclopropanecarboxamide] cannot be ordered by EC50: less than 100 nM for the first, less than 100 nM for the second.

Cc1n[nH]c(C)c1-c1ccc(NC(=O)[C@H](Cc2cc(-c3ccnn3C3CCC3)ccc2Cl)NC(=O)C2(F)CC2)cc1 [Example 226, N-[(1S)-1-[[2-chloro-5-(2-cyclobutylpyrazol-3-yl)phenyl]methyl]-2-[4-(3,5-dimethyl-1H-pyrazol-4-yl)anilino]-2-oxo-ethyl]-1-fluoro-cyclopropanecarboxamide] and Cc1n[nH]c(C)c1-c1ccc(NC(=O)[C@H](Cc2cc(-c3cnn(C)c3C)ccc2Cl)NC(=O)C2(F)CC2)cc1 [Example 227, N-[(1S)-1-[[2-chloro-5-(1,5-dimethylpyrazol-4-yl)phenyl]methyl]-2-[4-(3,5-dimethyl-1H-pyrazol-4-yl)anilino]-2-oxo-ethyl]-1-fluoro-cyclopropanecarboxamide] fall in the same range of EC50: 100 to 1000 nM for the first, 100 to 1000 nM for the second.

Cc1n[nH]c(C)c1-c1ccc(NC(=O)[C@H](Cc2cc(-c3ccc(CN4C[C@H]5C[C@@H]4CO5)cc3)ccc2Cl)NC(=O)C2(F)CC2)cc1 [Example 228, N-[(1S)-1-[[2-chloro-5-[4-[[(1R,4R)-2-oxa-5-azabicyclo[2.2.1]heptan-5-yl]methyl]phenyl]phenyl]methyl]-2-[4-(3,5-dimethyl-1H-pyrazol-4-yl)anilino]-2-oxo-ethyl]-1-fluoro-cyclopropanecarboxamide] and Cc1n[nH]c(C)c1-c1ccc(NC(=O)[C@H](Cc2cc(-c3ccc(CN4C[C@@H]5C[C@H]4CN5)cc3)ccc2Cl)NC(=O)C2(F)CC2)cc1 [Example 229, N-[(1S)-1-[[2-chloro-5-[4-[[(1S,4S)-2,5-diazabicyclo[2.2.1]heptan-2-yl]methyl]phenyl]phenyl]methyl]-2-[4-(3,5-dimethyl-1H-pyrazol-4-yl)anilino]-2-oxo-ethyl]-1-fluoro-cyclopropanecarboxamide] fall in the same range of EC50: 100 to 1000 nM for the first, 100 to 1000 nM for the second.

CC(C)n1cc(-c2ccc(Cl)c(C[C@H](NC(=O)C(C)(C)F)C(=O)Nc3ccc(-c4nncn4C)cc3)c2)ccc1=O [Example 282, N-[(1S)-1-[[2-chloro-5-(1-isopropyl-6-oxo-3-pyridyl)phenyl]methyl]-2-[4-(4-methyl-1,2,4-triazol-3-yl)anilino]-2-oxo-ethyl]-2-fluoro-2-methyl-propanamide] and CC(C)n1cc(-c2ccc(Cl)c(C[C@H](NC(=O)C(C)(F)F)C(=O)Nc3ccc(-c4nncn4C)cc3)c2)ccc1=O [Example 283, N-[(1S)-1-[[2-chloro-5-(1-isopropyl-6-oxo-3-pyridyl)phenyl]methyl]-2-[4-(4-methyl-1,2,4-triazol-3-yl)anilino]-2-oxo-ethyl]-2,2-difluoro-propanamide] cannot be ordered by EC50: greater than 1000 nM for the first, greater than 1000 nM for the second.

CC(C)n1cc(-c2ccc(Cl)c(C[C@H](NC(=O)O[C@H](C)C(F)(F)F)C(=O)Nc3ccc(-c4nncn4C)cc3)c2)ccc1=O [Example 286, [(1R)-2,2,2-trifluoro-1-methyl-ethyl] N-[(1S)-1-[[2-chloro-5-(1-isopropyl-6-oxo-3-pyridyl)phenyl]methyl]-2-[4-(4-methyl-1,2,4-triazol-3-yl)anilino]-2-oxo-ethyl]carbamate] and CC(C)n1cc(-c2ccc(Cl)c(C[C@H](NC(=O)[C@@H]3CC3(F)F)C(=O)Nc3ccc(-c4nncn4C)cc3)c2)ccc1=O [Example 287, (1S)-N-[(1S)-1-[[2-chloro-5-(1-isopropyl-6-oxo-3-pyridyl)phenyl]methyl]-2-[4-(4-methyl-1,2,4-triazol-3-yl)anilino]-2-oxo-ethyl]-2,2-difluoro-cyclopropanecarboxamide] cannot be ordered by EC50: greater than 1000 nM for the first, greater than 1000 nM for the second.

CC(C)n1cc(-c2ccc(Cl)c(C[C@H](NC(=O)[C@H]3CC3(F)F)C(=O)Nc3ccc(-c4nncn4C)cc3)c2)ccc1=O [Example 288, (1R)-N-[(1S)-1-[[2-chloro-5-(1-isopropyl-6-oxo-3-pyridyl)phenyl]methyl]-2-[4-(4-methyl-1,2,4-triazol-3-yl)anilino]-2-oxo-ethyl]-2,2-difluoro-cyclopropanecarboxamide] and CC(C)n1cc(-c2ccc(Cl)c(C[C@H](NC(=O)C3CC(F)(F)C3)C(=O)Nc3ccc(-c4nncn4C)cc3)c2)ccc1=O [Example 291, N-[(1S)-1-[[2-chloro-5-(1-isopropyl-6-oxo-3-pyridyl)phenyl]methyl]-2-[4-(4-methyl-1,2,4-triazol-3-yl)anilino]-2-oxo-ethyl]-3,3-difluoro-cyclobutanecarboxamide] cannot be ordered by EC50: greater than 1000 nM for the first, greater than 1000 nM for the second.

CC(C)n1cc(-c2ccc(Cl)c(C[C@H](NC(=O)C3CCC3)C(=O)Nc3ccc(-c4nncn4C)cc3)c2)ccc1=O [Example 293, N-[(1S)-1-[[2-chloro-5-(1-isopropyl-6-oxo-3-pyridyl)phenyl]methyl]-2-[4-(4-methyl-1,2,4-triazol-3-yl)anilino]-2-oxo-ethyl]cyclobutanecarboxamide] and CC(C)n1cc(-c2ccc(Cl)c(CC(NC(=O)C3(F)CC3)C(=O)Nc3ccc(-c4nncn4C)cc3)c2)cc(C(F)(F)F)c1=O (centres unmarked) [Example 307, N-[1-[[2-chloro-5-[1-isopropyl-6-oxo-5-(trifluoromethyl)-3-pyridyl]phenyl]methyl]-2-[4-(4-methyl-1,2,4-triazol-3-yl)anilino]-2-oxo-ethyl]-1-fluoro-cyclopropanecarboxamide] cannot be ordered by EC50: greater than 1000 nM for the first, greater than 1000 nM for the second.

Cn1cnnc1-c1ccc(NC(=O)C(Cc2cc(-c3ccc(O)c(C(=O)N4CCOCC4)c3)ccc2Cl)NC(=O)c2ccnn2C)cc1 (centres unmarked) [Example 296, N-[1-[[2-chloro-5-[4-hydroxy-3-(morpholine-4-carbonyl)phenyl]phenyl]methyl]-2-[4-(4-methyl-1,2,4-triazol-3-yl)anilino]-2-oxo-ethyl]-2-methyl-pyrazole-3-carboxamide] and Cc1cc(-c2ccc(Cl)c(CC(NC(=O)c3ccnn3C)C(=O)Nc3ccc(-c4nncn4C)cc3)c2)ccc1C#N (centres unmarked) [Example 309, N-[1-[[2-chloro-5-(4-cyano-3-methyl-phenyl)phenyl]methyl]-2-[4-(4-methyl-1,2,4-triazol-3-yl)anilino]-2-oxo-ethyl]-2-methyl-pyrazole-3-carboxamide] cannot be ordered by EC50: greater than 1000 nM for the first, greater than 1000 nM for the second.

CC(C)n1cc(-c2ccc(Cl)c(CC(NC(=O)c3ccnn3C)C(=O)Nc3ccc(-c4ncnn4C)cc3)c2)ccc1=O (centres unmarked) [Example 301, N-[1-[[2-chloro-5-(1-isopropyl-6-oxo-3-pyridyl)phenyl]methyl]-2-[4-(2-methyl-1,2,4-triazol-3-yl)anilino]-2-oxo-ethyl]-2-methyl-pyrazole-3-carboxamide] and Cn1cnnc1-c1ccc(NC(=O)C(Cc2cc(-c3ccc(C#N)cc3)ccc2Cl)NC(=O)c2ccnn2C)cc1 (centres unmarked) [Example 308, N-[1-[[2-chloro-5-(4-cyanophenyl)phenyl]methyl]-2-[4-(4-methyl-1,2,4-triazol-3-yl)anilino]-2-oxo-ethyl]-2-methyl-pyrazole-3-carboxamide] cannot be ordered by EC50: greater than 1000 nM for the first, greater than 1000 nM for the second.

First: Cc1nocc1C(=O)NC(Cc1cc(-c2ccnc(C(=O)N(C)C3CC3)c2)ccc1Cl)C(=O)Nc1ccc(-c2nncn2C)cc1 (centres unmarked) [Example 306, N-[1-[[2-chloro-5-[2-[cyclopropyl(methyl)carbamoyl]-4-pyridyl]phenyl]methyl]-2-[4-(4-methyl-1,2,4-triazol-3-yl)anilino]-2-oxo-ethyl]-3-methyl-isoxazole-4-carboxamide]
Second: COCCOCCn1cc(-c2cccc(-c3ccc(Cl)c(CC(NC(=O)c4ccnn4C)C(=O)Nc4ccc(-c5c(C)n[nH]c5C)cc4)c3)c2)nn1 (centres unmarked) [Example 312, N-[1-[[2-chloro-5-[3-[1-[2-(2-methoxyethoxy)ethyl]triazol-4-yl]phenyl]phenyl]methyl]-2-[4-(3,5-dimethyl-1H-pyrazol-4-yl)anilino]-2-oxo-ethyl]-2-methyl-pyrazole-3-carboxamide]
The EC50 of the first is higher: greater than 1000 nM for the first, 100 to 1000 nM for the second. The second is the more potent here.

First: Cc1n[nH]c(C)c1-c1ccc(NC(=O)[C@H](Cc2cc(-c3cccc(CN4C[C@H]5C[C@@H]4CN5)c3)ccc2Cl)NC(=O)C2(F)CC2)cc1 [Example 310, N-[(1S)-1-[[2-chloro-5-[3-[[(1R,4R)-2,5-diazabicyclo[2.2.1]heptan-2-yl]methyl]phenyl]phenyl]methyl]-2-[4-(3,5-dimethyl-1H-pyrazol-4-yl)anilino]-2-oxo-ethyl]-1-fluoro-cyclopropanecarboxamide]
Second: Cc1n[nH]c(C)c1-c1ccc(NC(=O)[C@H](Cc2cc(N3CCOCC3)ccc2Cl)NC(=O)c2ccnn2C)cc1 [Example 311, N-[(1S)-1-[(2-chloro-5-morpholino-phenyl)methyl]-2-[4-(3,5-dimethyl-1H-pyrazol-4-yl)anilino]-2-oxo-ethyl]-2-methyl-pyrazole-3-carboxamide]
The EC50 of the first is lower: 100 to 1000 nM for the first, greater than 1000 nM for the second. The first is the more potent here.

With COCCOCCn1cc(-c2ccc(-c3ccc(Cl)c(CC(NC(=O)c4ccnn4C)C(=O)Nc4ccc(-c5c(C)n[nH]c5C)cc4)c3)cc2)nn1 (centres unmarked) [Example 313, N-[1-[[2-chloro-5-[4-[1-[2-(2-methoxyethoxy)ethyl]triazol-4-yl]phenyl]phenyl]methyl]-2-[4-(3,5-dimethyl-1H-pyrazol-4-yl)anilino]-2-oxo-ethyl]-2-methyl-pyrazole-3-carboxamide] the EC50 was less than 100 nM.
